Experimental data published in patent publication US20210087217A1, “NUCLEOTIDE HEMI-SULFATE SALT FOR THE TREATMENT OF HEPATITIS C VIRUS” (Atea Pharmaceuticals, Inc., priority 2017, published 2021).
“Also recorded” adds a separate entry of the source. Structures can show the parent of a compound that is named as a salt.

Columns and labels:
[1] = Chemical stability of Compound 2 at 25 and 40° C. over 6 months; format: physicochemical
Protocol: The container closure system for the study was a combination medicinal valve bag with a pharmaceutical laminated film over the pouch and desiccant silica gel between the two layers. […] Bags were then stored at 25° C./60% RH (relative humidity) and 40° C./75% RH (relative humidity). Organic purity, water content, ^1HNMR, DSC and Raman were measured at Time 0, Month 1, Month 2, Month 3 and Month 6.
The sample was dissolved in acetonitrile-water (90:10) (v/v). The gradient method is shown below.
At 25° C., the percent of degradation product increased from 0.03% at Day 0 to 0.08% after 6 months. At 40° C., the percent of degradation product increased from 0.03% to 0.39%. Over the course of 6 months, the percent of water increased approximately 0.6% at 25° C. and increased approximately 0.7% at 40° C.

[2] = Solubility in biorelevant test medias (water, SGF, FaSSIF, FeSSIF)
[3] = Ambient stability (25 ± 2° C./60 ± 5% RH) of Compound 2; format: physicochemical
Protocol: Three conditions were tested: accelerated stability (40 2° C./75±5% RH) over a 6-month time period, ambient stability (25±2° C./60±5% RH) over a 9-month period, and stability under refrigerator conditions (5 3° C.) over a 9-month time period. The results for accelerated stability, ambient stability, and refrigerator conditions are shown in Table 23, Table 24, and Table 25, respectively.
After 9 months, the percentage of water in the sample was only 0.20% and the total related substance 1 impurities was only 0.02%.

[4] = Plasma profiles of Compound 2 metabolites in monkeys; format: in vivo, cynomolgus monkeys; conditions: monkeys, single oral 30, 100 or 300 mg/kg Compound 2
[5] = Plasma profiles of Compound 2 metabolites in rats; conditions: rats, single oral dose of Compound 2
Protocol: The results for a single 500 mg/kg dose in rats is shown in FIG. 17 and the results for a single 30, 100, or 300 mg/kg dose in monkeys is shown in FIG. 18.

[6] = 25° C./60% RH, over nine months
[7] = 25 ± 2° C./60 ± 5% RH, 1st month
[8] = 25 ± 2° C./60 ± 5% RH, 3rd month
[9] = 25 ± 2° C./60 ± 5% RH, 6th month
[10] = 25 ± 2° C./60 ± 5% RH, 9th month

## CNc1nc(N)nc2c1ncn2[C@@H]1O[C@H](CO[P@@](=O)(N[C@@H](C)C(=O)OC(C)C)Oc2ccccc2)[C@@H](O)[C@@]1(C)F [Compound 2, hemi-sulfate salt of isopropyl((S)-(((2R,3R,4R,5R)-5-(2-amino-6-(methylamino)-9H-purin-9-yl)-4-fluoro-3-hydroxy-4-methyltetrahydrofuran-2-yl)methoxy)(phenoxy)phosphoryl)-L-alaninate]
[1]; 25° C.
  Increase of the percent of water over 6 months: approximately 0.6%
[1]; 25° C./60% RH, Day 0
  Maximum Impurity Percent: 0.12%
  Percent Purity: 99.82%
  Percent Water: 1.2%
[1]; 25° C./60% RH, Month 1
  1HNMR compared with Day 0: The same as
  DSC compared with Day 0: The same as
  Maximum Impurity Percent: 0.12%
  Percent Purity: 99.77%
  Percent Water: 1.9%
  Raman compared with Day 0: The same as
[1]; 25° C./60% RH, Month 2
  1HNMR compared with Day 0: The same as
  DSC compared with Day 0: The same as
  Maximum Impurity Percent: 0.12%
  Percent Purity: 99.75%
  Percent Water: 1.8%
  Raman compared with Day 0: The same as
[1]; 25° C./60% RH, Month 3
  1HNMR compared with Day 0: The same as
  DSC compared with Day 0: The same as
  Maximum Impurity Percent: 0.12%
  Percent Purity: 99.75%
  Percent Water: 1.8%
  Raman compared with Day 0: The same as
[1]; 25° C./60% RH, Month 6
  1HNMR compared with Day 0: The same as
  DSC compared with Day 0: The same as
  Maximum Impurity Percent: 0.13%
  Percent Purity: 99.74%
  Percent Water: 1.8%
  Raman compared with Day 0: The same as
[1]; 40° C.
  Increase of the percent of water over 6 months: approximately 0.7%
[1]; 40° C./75% RH, Day 0
  Maximum Impurity Percent: 0.12%
  Percent Purity: 99.82%
  Percent Water: 1.2%
[1]; 40° C./75% RH, Month 1
  1HNMR compared with Day 0: The same as
  DSC compared with Day 0: The same as
  Maximum Impurity Percent: 0.12%
  Percent Purity: 99.71%
  Percent Water: 2.0%
  Raman compared with Day 0: The same as
[1]; 40° C./75% RH, Month 2
  1HNMR compared with Day 0: The same as
  DSC compared with Day 0: The same as
  Maximum Impurity Percent: 0.12%
  Percent Purity: 99.63%
  Percent Water: 1.9%
  Raman compared with Day 0: The same as
[1]; 40° C./75% RH, Month 3
  1HNMR compared with Day 0: The same as
  DSC compared with Day 0: The same as
  Maximum Impurity Percent: 0.12%
  Percent Purity: 99.58%
  Percent Water: 1.9%
  Raman compared with Day 0: The same as
[1]; 40° C./75% RH, Month 6
  1HNMR compared with Day 0: The same as
  DSC compared with Day 0: The same as
  Maximum Impurity Percent: 0.14%
  Percent Purity: 99.30%
  Percent Water: 1.9%
  Raman compared with Day 0: The same as
[1]; stored for 6 months at 25 and 40° C.
  Rate of degradation: minimal
[2]; FaSSIF
  Appearance in solubility test: Turbid
  Solubility descriptive term: Slightly
[2]; FeSSIF
  Appearance in solubility test: Turbid
  Solubility descriptive term: Slightly
[2]; SGF
  Appearance in solubility test: Turbid
  Solubility descriptive term: Soluble
[2]; Water
  Appearance in solubility test: Turbid
  Solubility descriptive term: Soluble
  Times more soluble in water compared to Compound 1: up to 43 times
[2]; simulated gastric fluid (SGF)
  Times more soluble than Compound 1 under SGF conditions: over 6 times
[3]; 25° C./60% RH, after 9 months
  Percentage of water: 0.20%
  Total related substance 1 impurities: 0.02%
[3]; 25° C./60% RH, nine months
  Related substance 2 and any isomers: not detected
[3]; [6]
  Appearance: white solid
  IR: corresponded with the reference sample
[3]; 25 ± 2° C./60 ± 5% RH, 0 month
  Appearance: White
  Assay: 98.8%
  IR: correspond
  Related Substance 1 Any other single impurity: 0.01%
  Related Substance 1 Total Impurities: 0.01%
  Water: 0.45%
[3]; [7]
  Appearance: White
  Assay: 101.1%
  Related Substance 1 Any other single impurity: 0.01%
  Related Substance 1 Total Impurities: 0.02%
  Water: 0.19%
[3]; [8]
  Appearance: White
  Assay: 99.6%
  IR: correspond
  Related Substance 1 Any other single impurity: 0.03%
  Related Substance 1 Impurity B: 0.03%
  Related Substance 1 Impurity F: 0.02%
  Related Substance 1 Total Impurities: 0.11%
  Water: 0.29%
[3]; [9]
  Appearance: White solid
  Assay: 99.7%
  IR: correspond
  Related Substance 1 Any other single impurity: 0.02%
  Related Substance 1 Impurity F: 0.01%
  Related Substance 1 Total Impurities: 0.05%
  Water: 0.46%
[3]; [10]
  Appearance: Off-white
  Assay: 100.9%
  IR: correspond
  Related Substance 1 Any other single impurity: 0.02%
  Related Substance 1 Total Impurities: 0.02%
  Water: 0.20%
[3]; ambient conditions (25° C./60% RH), 9 months
  Stability: very stable; also recorded: stable
[4]
  Dose proportionality of metabolite 1-7 exposures: somewhat less than dose-proportional
  Dose proportionality of plasma exposures (AUC) of Compound 1: roughly dose-proportional
[5]
  Plasma levels of parent nucleotide prodrug: very low plasma levels
